This note sets out measurements from PubChem BioAssay (NCI).

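Method: 48-hour compound exposure of cells in 96-well plates, five concentrations, linear interpolation of endpoints. TGI denotes the concentration required for complete inhibition of growth.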

One experiment has as its system IGROV1 ovarian. Kind of experiment: NCI-60 cell line screen, 48 h.
As for `COP(=O)(/C=C/c1cc(C(=O)OCc2ccccc2)n(S(=O)(=O)c2ccccc2)c1)OC`, the TGI was > 100 µM.
The same measure, in the same setting: for `NC1=NCC(CN2CCOCC2)O1` (stereo not given) the value was > 100 µM; for `Cc1cc(C(=O)CCCCOc2ccc(C3=NCCO3)cc2)c(C)n1C`, > 100 µM.
The same measure, in the same setting: to `CCOC(=O)C1=C(C)C2C=C(c3cccs3)CC(c3ccc(Cl)cc3)=C2OC1=O` (stereo not given) belongs > 100 µM; to `CCCCC(C(=O)NCCNC(=O)CCC(=O)N(C)O)C(=O)NCCNC(=O)CCC(=O)N(C)O`, > 100 µM.

Another experiment deals with SF-295 CNS. The experiment can be described thus: NCI-60 cell line screen, 48 h.
Regarding `COP(=O)(/C=C/c1cc(C(=O)OCc2ccccc2)n(S(=O)(=O)c2ccccc2)c1)OC`, the TGI is > 100 µM.
The same measure, in the same setting: to `NC1=NCC(CN2CCOCC2)O1` (stereo not given) belongs > 100 µM; to `Cc1cc(C(=O)CCCCOc2ccc(C3=NCCO3)cc2)c(C)n1C`, > 100 µM.
On the same count and under the same terms, for `CCOC(=O)C1=C(C)C2C=C(c3cccs3)CC(c3ccc(Cl)cc3)=C2OC1=O` (stereo not given) the value was > 100 µM; for `CCCCC(C(=O)NCCNC(=O)CCC(=O)N(C)O)C(=O)NCCNC(=O)CCC(=O)N(C)O`, > 100 µM.

For the next experiment, the system named is CCRF-CEM leukemia. Kind of experiment: NCI-60 cell line screen, 48 h.
In the case of `COP(=O)(/C=C/c1cc(C(=O)OCc2ccccc2)n(S(=O)(=O)c2ccccc2)c1)OC`, the TGI was > 100 µM.
The same measure, in the same setting: for `NC1=NCC(CN2CCOCC2)O1` (stereo not given) the value was > 100 µM; for `Cc1cc(C(=O)CCCCOc2ccc(C3=NCCO3)cc2)c(C)n1C`, 46.6 µM; for `CCOC(=O)C1=C(C)C2C=C(c3cccs3)CC(c3ccc(Cl)cc3)=C2OC1=O` (stereo not given), 60.1 µM.
Take `CCCCC(C(=O)NCCNC(=O)CCC(=O)N(C)O)C(=O)NCCNC(=O)CCC(=O)N(C)O`: the TGI is > 100 µM.

A further experiment concerns SK-MEL-2 melanoma. The experiment can be described thus: NCI-60 cell line screen, 48 h.
As to `COP(=O)(/C=C/c1cc(C(=O)OCc2ccccc2)n(S(=O)(=O)c2ccccc2)c1)OC`, the TGI was > 100 µM.
Consider `NC1=NCC(CN2CCOCC2)O1` (stereo not given), for which the TGI was > 100 µM.
Still for that read-out and setting: to `Cc1cc(C(=O)CCCCOc2ccc(C3=NCCO3)cc2)c(C)n1C` belongs > 100 µM; to `CCOC(=O)C1=C(C)C2C=C(c3cccs3)CC(c3ccc(Cl)cc3)=C2OC1=O` (stereo not given), > 100 µM; to `CCCCC(C(=O)NCCNC(=O)CCC(=O)N(C)O)C(=O)NCCNC(=O)CCC(=O)N(C)O`, > 100 µM.

The test system of a further experiment is SN12C renal. Kind of experiment: NCI-60 cell line screen, 48 h.
As to `COP(=O)(/C=C/c1cc(C(=O)OCc2ccccc2)n(S(=O)(=O)c2ccccc2)c1)OC`, the TGI is > 100 µM.
In the case of `NC1=NCC(CN2CCOCC2)O1` (stereo not given), the TGI was > 100 µM.
As to `Cc1cc(C(=O)CCCCOc2ccc(C3=NCCO3)cc2)c(C)n1C`, the TGI was > 100 µM.
On the same count and under the same terms, to `CCOC(=O)C1=C(C)C2C=C(c3cccs3)CC(c3ccc(Cl)cc3)=C2OC1=O` (stereo not given) belongs > 100 µM; to `CCCCC(C(=O)NCCNC(=O)CCC(=O)N(C)O)C(=O)NCCNC(=O)CCC(=O)N(C)O`, > 100 µM.

A further experiment has as its system A498 renal. Kind of experiment: NCI-60 cell line screen, 48 h.
Take `COP(=O)(/C=C/c1cc(C(=O)OCc2ccccc2)n(S(=O)(=O)c2ccccc2)c1)OC`: the TGI is > 100 µM.
Same read-out and setting: for `NC1=NCC(CN2CCOCC2)O1` (stereo not given) the value was > 100 µM; for `Cc1cc(C(=O)CCCCOc2ccc(C3=NCCO3)cc2)c(C)n1C`, 86.8 µM; for `CCOC(=O)C1=C(C)C2C=C(c3cccs3)CC(c3ccc(Cl)cc3)=C2OC1=O` (stereo not given), > 100 µM.
For `CCCCC(C(=O)NCCNC(=O)CCC(=O)N(C)O)C(=O)NCCNC(=O)CCC(=O)N(C)O`, the TGI is > 100 µM.

For the next experiment, the system named is SK-MEL-5 melanoma. Kind of experiment: NCI-60 cell line screen, 48 h.
Turning to `COP(=O)(/C=C/c1cc(C(=O)OCc2ccccc2)n(S(=O)(=O)c2ccccc2)c1)OC`, the TGI is > 100 µM.
With `NC1=NCC(CN2CCOCC2)O1` (stereo not given), the TGI was > 100 µM.
Consider `Cc1cc(C(=O)CCCCOc2ccc(C3=NCCO3)cc2)c(C)n1C`, for which the TGI is 34.9 µM.
The same measure, in the same setting: for `CCOC(=O)C1=C(C)C2C=C(c3cccs3)CC(c3ccc(Cl)cc3)=C2OC1=O` (stereo not given) the value was > 100 µM; for `CCCCC(C(=O)NCCNC(=O)CCC(=O)N(C)O)C(=O)NCCNC(=O)CCC(=O)N(C)O`, > 100 µM.

A further experiment concerns PC-3 prostate. Kind of experiment: NCI-60 cell line screen, 48 h.
With `COP(=O)(/C=C/c1cc(C(=O)OCc2ccccc2)n(S(=O)(=O)c2ccccc2)c1)OC`, the TGI was > 100 µM.
Take `NC1=NCC(CN2CCOCC2)O1` (stereo not given): the TGI is > 100 µM.
The same measure, in the same setting: for `Cc1cc(C(=O)CCCCOc2ccc(C3=NCCO3)cc2)c(C)n1C` the value was 59.7 µM; for `CCOC(=O)C1=C(C)C2C=C(c3cccs3)CC(c3ccc(Cl)cc3)=C2OC1=O` (stereo not given), > 100 µM; for `CCCCC(C(=O)NCCNC(=O)CCC(=O)N(C)O)C(=O)NCCNC(=O)CCC(=O)N(C)O`, > 100 µM.

For another experiment, the system named is MOLT-4 leukemia. The experiment can be described thus: NCI-60 cell line screen, 48 h.
As for `COP(=O)(/C=C/c1cc(C(=O)OCc2ccccc2)n(S(=O)(=O)c2ccccc2)c1)OC`, the TGI is > 100 µM.
As for `NC1=NCC(CN2CCOCC2)O1` (stereo not given), the TGI was > 100 µM.
Same read-out and setting: for `Cc1cc(C(=O)CCCCOc2ccc(C3=NCCO3)cc2)c(C)n1C` the value was 34.4 µM.
On the same count and under the same terms, for `CCOC(=O)C1=C(C)C2C=C(c3cccs3)CC(c3ccc(Cl)cc3)=C2OC1=O` (stereo not given) the value was > 100 µM; for `CCCCC(C(=O)NCCNC(=O)CCC(=O)N(C)O)C(=O)NCCNC(=O)CCC(=O)N(C)O`, > 100 µM.

For another experiment, the system named is KM12 colon. The experiment can be described thus: NCI-60 cell line screen, 48 h.
As for `COP(=O)(/C=C/c1cc(C(=O)OCc2ccccc2)n(S(=O)(=O)c2ccccc2)c1)OC`, the TGI is > 100 µM.
For `NC1=NCC(CN2CCOCC2)O1` (stereo not given), the TGI was > 100 µM.
The same measure, in the same setting: to `Cc1cc(C(=O)CCCCOc2ccc(C3=NCCO3)cc2)c(C)n1C` belongs > 100 µM.
Still for that read-out and setting: to `CCOC(=O)C1=C(C)C2C=C(c3cccs3)CC(c3ccc(Cl)cc3)=C2OC1=O` (stereo not given) belongs 39.8 µM.
Still for that read-out and setting: for `CCCCC(C(=O)NCCNC(=O)CCC(=O)N(C)O)C(=O)NCCNC(=O)CCC(=O)N(C)O` the value was > 100 µM.
